# Earlier results, collected in patent US20110286960A1, “CANCER THERAPY BY DOCETAXEL AND GRANULOCYTE COLONY-STIMULATING FACTOR (G-CSF)” (OPTIMATA LTD., priority 2008, published 2011).
# Where two headings read alike, the source gives them in different places.
# B1: G-CSF: Granulocyte Colony-Stimulating Factor, neutropenia alleviating support therapy (protein, UniProt P09919 31-207, looked up)
# Granulocyte …: TPLGPASSLPQSFLLKCLEQVRKIQGDGAALQEKLVSECATYKLCHPEELVLLGHSLGIPWAPLSSCPSQALQLAGCLSQLHSGLFLYQGLLQALEGISPELGPTLDTLQLDVADFATTIWQQMEELGMAPALQPTQGAMPAFASAFQRRAGGVLVASHLQSFLEVSYRVLRHLAQP
# How the values were obtained:
# [1] = Baker et al., 2004, mean ± STD
# [2] = system: neutrophils; settings: for nadir of neutrophil level: human, in vivo
# [3] = system: neutrophils; settings: G-CSF treatment one day post-chemotherapy
# [4] = docetaxel clinical trial results (17, 28)
molecule,measurement,setting,value
CC(=O)O[C@@]12CO[C@@H]1C[C@H](O)[C@@]1(C)C(=O)[C@H](O)C3=C(C)[C@@H](OC(=O)[C@H](O)[C@@H](NC(=O)OC(C)(C)C)c4ccccc4)C[C@@](O)([C@@H](OC(=O)c4ccccc4)[C@H]21)C3(C)C [Docetaxel],AUC,[1]; 35 mg/m^2,1320 ± 420 ng·h/mL
same,Clearance,[1]; 35 mg/m^2,29.10 ± 10.20 L/h*m^2
same,Cmax,[1]; 35 mg/m^2,1850 ± 730 ng/mL
same,Terminal half life,[1]; 35 mg/m^2,15.60 ± 12.00 h
same,AUC,[1]; 100 mg/m^2,5620 ± 2120 ng·h/mL
same,Clearance,[1]; 100 mg/m^2,19.60 ± 5.60 L/h*m^2
same,Cmax,[1]; 100 mg/m^2,4150 ± 1350 ng/mL
same,Terminal half life,[1]; 100 mg/m^2,17.20 ± 6.20 h
same,patients suffering grade 3/4 neutropenia,"[2]; 14 patients, weekly docetaxel 40-45 mg/m^2, three consecutive weeks in cycles of four weeks (38)",Half
same,nadir recorded on days,[2]; [4],6 to 10 days
same,recovery to baseline recorded on days,[2]; [4],16 to 22 days
same,neutropenia,"[2]; docetaxel dose up to 145 mg/m^2, as reported in (36)",acceptable neutropenia
same,patients suffering grade 3/4 neutropenia,[2]; patients receiving 30-35 mg/m2/week (38),none
same,"docetaxel clearance, CYP3A-affected clinically observed range",,5.4-29.1 Uhr/m^2
same,"docetaxel clearance, observed range",CYP3A inter-individual variability (27),5.4-29.1 L/hr/m^2
CCc1c2c(nc3ccc(OC(=O)N4CCC(N5CCCCC5)CC4)cc13)-c1cc3c(c(=O)n1C2)COC(=O)[C@]3(O)CC [Irinotecan],nadir of neutrophil level,[2],9 days
CC[C@]12C=CCN3CC[C@@]4(c5cc([C@@]6(C(=O)OC)C[C@@H]7C[C@@H](C(C)(F)F)CN(Cc8c6[nH]c6ccccc86)C7)c(OC)cc5N(C)[C@H]4[C@@](O)(C(=O)OC)[C@@H]1OC(C)=O)[C@@H]32 [vinflunine],nadir of neutrophil level,[2],20 days
B1,grade 4 neutropenia reported,"[2]; G-CSF post-docetaxel, locally advanced breast cancer (10) or advanced NSCLC patients (11)",No grade 4 neutropenia
same,effect on neutropenia,[3],speeds up and aggravates neutropenia
